Values of other authors, collected in US20060257502A1, “A COMBINATION OF MITOCHONDRIAL NUTRIENTS FOR RELIEVING STRESS, PREVENTING AND IMPROVING STRESS-RELATED DISORDERS” (priority 2005, published 2006).

System: rats

Oc1ccc(/C=C/c2cc(O)cc(O)c2)cc1 [Resveratrol, trans-3,5,4′-trihydroxystilbene]
No observed adverse effect level: 300 mg per kilogram body weight per day
